This assay concerns Hereford crossbred heifers. The assay is described as follows: Cetrorelix pre-treatment before kisspeptin-10 in low-progesterone heifer model (Example 1). It counts as in vivo, cattle. As to the method:
Methods: The human Kisspeptin-10 (hKP-10) peptide (YNWNSFGLRF-NH2; SEQ ID NO: 1) was custom synthetized at >95% of purity (MW: 1318.44 g/mol) by GenScript USA Inc, Piscataway, NJ, USA. The sequence is based on the predicted C-terminal region (112-121-NH2) of human metastin (Gen Bank accession #AY117143) and has been previously used in cattle. The peptide was previously tested for solubility and was dissolved in ultrapure water at 10 mg/mL.
The heifers were maintained in outdoor pens at the University of Saskatchewan Goodale Research Farm (52° north and 106° west). Heifers were fed barley silage and had hay and water ad libitum. A mineral salt block was available to heifers throughout the study period. All procedures were performed in accordance with Canadian Council on Animal Care and were approved by the University of Saskatchewan Protocol Review Committee.
Immediately after ultrasound examination, heifers were given PGF2a twice at an interval of 12-hours. The low-progesterone bovine model described previously (Leonardi et al. 2019) was used to test the hypothesis. Briefly, the ovaries were examined daily by ultrasonography to detect ovulation. Three days after ovulation, follicles ≥5 mm in diameter in both ovaries were ablated by transvaginal ultrasound-guided follicle aspiration, inducing the emergence of new follicular wave 1.5 days after the procedure (Bergfelt et al. 1994). After follicular ablation, a progesterone device was placed in the vagina (CIDR; Zoetis). The day of wave emergence (Day 0) was defined as the day when the follicle of wave was first recorded (4 to 5 mm in diameter) with concurrent increase in diameter. Heifers were given PGF2α im on Days 3.5 and 4 (i.e., 8 and 8.5 days after ovulation) to cause luteolysis, however, the CIDR devices were left in place until Day 12 to maintain a low-progesterone milieu sufficient to prevent spontaneous ovulation. On Day 6, an indwelling jugular catheter was placed as described (Bergfelt et al. 1997) and heifers were assigned randomly to three groups (n=5 per group): 1) 3 iv doses of 15 mg human kisspeptin-10 at 1 h intervals (Kp10 group), 2) pretreatment with single im dose of Cetrorelix acetate (20 μg/Kg of body weight, GnRH antagonist—Sigma #C5249 diluted in 5% D-Manitol w/v, Sigma #M4125) followed 3 h later with 3 iv doses of 15 mg human kisspeptin-10 at 1 h intervals (Cetrorelix group), or 3) 3 iv doses of normal saline at 1 h intervals (Control group). Following treatment (on Day 6), ovarian ultrasound examinations were performed daily until the end of the experiment to detect ovulation of the extant dominant follicle (i.e., dominant follicle present at the time of treatment) or of the dominant follicle originating from a subsequent wave. The progesterone device was withdrawn on Day 12 (i.e., thirteen days after insertion) and ultrasound examinations were continued until ovulation was detected.
Blood samples and hormone assays: Serial blood samples on the day of treatment were collected at 15 minute intervals from −30 to 150 min (0 min=time of first hKP-10 or saline injection) using the indwelling jugular catheter. All blood samples were collected in heparinized tubes (Vacutainer, BD, Franklin Lakes NJ, USA). Immediately after sampling, tubes were centrifuged at 1,500×g for 15 min, and plasma was separated and stored at −20° C.
The plasma samples from both experiments were analyzed for LH and progesterone concentration at the University of Wisconsin (Madison, WI, USA) in Dr O. J. Ginther's Research Laboratory. Plasma LH concentrations were measured with a validated radioimmunoassay for cattle (Bolt et al. 1990) with modifications as reported Ginther et al. 1999). Briefly, LH concentrations were measured in duplicate using USDA-bLH-B-6 for ^125I-iodination and for preparing reference standards, and USDA-309-684P as the primary antibody (National Hormone and Pituitary Program, Torrance, CA, USA). […]

[1] abbreviates: Day 6 of wave, low progesterone, Kp10 3 x 15 mg iv, Cetrorelix 20 μg/Kg im 3 h before Kp10.
[2] abbreviates: Kp10 3 x 15 mg iv, Cetrorelix 20 μg/Kg im 3 h before Kp10.

Experimental findings from patent US20260034192A1 (University of Saskatchewan, priority 2022, published 2026) are described below.

Each structure is given as a SMILES string. “And” between values parts separate entries of the source, which are not always exact repeats. Equal entries are not always repeated. Square brackets hold non-standard residues; d marks the D form. Peptide text beside a SMILES is read from it. dPhe(4-Cl) = N[C@H](Cc1ccc(Cl)cc1)C(=O)O; d2Nal = N[C@H](Cc1ccc2ccccc2c1)C(=O)O; dCit = NC(=O)NCCC[C@@H](N)C(=O)O; d3Pal = N[C@H](Cc1cccnc1)C(=O)O

In the case of `CC(=O)N[C@H](Cc1ccc2ccccc2c1)C(=O)N[C@H](Cc1ccc(Cl)cc1)C(=O)N[C@H](Cc1cccnc1)C(=O)N[C@@H](CO)C(=O)N[C@@H](Cc1ccc(O)cc1)C(=O)N[C@H](CCCNC(N)=O)C(=O)N[C@@H](CC(C)C)C(=O)N[C@@H](CCCNC(=N)N)C(=O)N1CCC[C@H]1C(=O)N[C@H](C)C(N)=O` [Cetrorelix, N-acetyl-3-(2-naphthyl)-D-alanyl-4-chloro-D-phenylalanyl-3-(3-pyridyl)-D-alanyl-L-seryl-L-tyrosyl-D-citrullyl-L-leucyl-L-arginyl-L-prolyl-D-alaninamide] (Ac-[d2Nal][dPhe(4-Cl)][d3Pal]SY[dCit]LRP[dA]-NH2), under setting [1], the “Dominant follicle diameter 24 h after treatment” value is reported as 13.38 ± 0.55 mm, the “Dominant follicle diameter 48 h after treatment” value is given as 12.91 ± 0.55 mm and the “Dominant follicle diameter at time of treatment” value came to 13.01 ± 0.68 mm. Where the note is “Day 6 of wave, low progesterone, Kp10 3 x 15 mg iv, Cetrorelix single im 20 μg/Kg 3 h before Kp10”, the “Emergence of a new follicular wave after treatment” value was 3.40 ± 0.75 days and 3.4 days. The “Emergence of a new follicular wave after treatment” value (Day 6 of wave, low progesterone, Kp10 3 x 15 mg iv, Cetrorelix single im 20 μg/Kg 3 h before Kp10, listed as Cetrorelix acetate) is reported as “about 3.40±0.75 days”. Further, the “Day of ovulation of new dominant follicles after CIDR removal (Day 12)” value (Day of follicular wave) is given as 15. Moreover, under setting [2], the “Heifers in which a new wave emergence occurred” value is given as 5 of 5, the “Number of ovulations after CIDR removal on Day 12: Extant dominant follicle” value is given as 0/5, the “Number of ovulations after CIDR removal on Day 12: New dominant follicle” value is recorded as 5/5 and the “Plasma LH concentration / kisspeptin-induced LH surge” value is “suppressed the kisspeptin-induced LH surge”. Besides, for the setting “after kisspeptin and GnRH antagonist treatment”, the “Time by which the dominant follicle entered the regression phase” value was at most 72 h.
